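96-well plates; 48 h exposure; 5 concentrations. Endpoints by linear interpolation between flanking doses. Not reached: highest tested concentration assigned. TGI marks complete inhibition of growth.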
Experiments:
Assay in all cases: DTP human tumour cell line panel, 48 h
[1] = system: 786-0 renal
[2] = system: A498 renal
[3] = system: A549 NSCLC
[4] = system: ACHN renal
[5] = system: BT-549 breast
[6] = system: CAKI-1 renal
[7] = system: CCRF-CEM leukemia
[8] = system: COLO 205 colon
[9] = system: DU-145 prostate
[10] = system: EKVX NSCLC
[11] = system: HCC-2998 colon
[12] = system: HCT-116 colon
[13] = system: HCT-15 colon
[14] = system: HL-60(TB) leukemia
[15] = system: HOP-62 NSCLC
[16] = system: HOP-92 NSCLC
[17] = system: HS 578T breast
[18] = system: HT29 colon
[19] = system: IGROV1 ovarian
[20] = system: K-562 leukemia
[21] = system: KM12 colon
[22] = system: LOX IMVI melanoma
[23] = system: M14 melanoma
[24] = system: MALME-3M melanoma
[25] = system: MCF7 breast
[26] = system: MDA-MB-231 breast
[27] = system: MDA-MB-435
[28] = system: MDA-N
[29] = system: MOLT-4 leukemia
[30] = system: NCI-H226 lung
[31] = system: NCI-H23 lung
[32] = system: NCI-H460 lung
[33] = system: NCI-H522 lung
[34] = system: NCI/ADR-RES ovarian
[35] = system: OVCAR-3 ovarian
[36] = system: OVCAR-4 ovarian
[37] = system: OVCAR-5 ovarian
[38] = system: OVCAR-8 ovarian
[39] = system: PC-3 prostate
[40] = system: RPMI-8226 leukemia
[41] = system: RXF 393 renal
[42] = system: SF-268 CNS
[43] = system: SF-295 CNS
[44] = system: SF-539 CNS
[45] = system: SK-MEL-2 melanoma
[46] = system: SK-MEL-28 melanoma
[47] = system: SK-MEL-5 melanoma
[48] = system: SK-OV-3 ovarian
[49] = system: SN12C renal
[50] = system: SNB-19 CNS
[51] = system: SNB-75 CNS
[52] = system: SR leukemia
[53] = system: SW-620 colon
[54] = system: T-47D breast
[55] = system: TK-10 renal
[56] = system: U251 CNS
[57] = system: UACC-257 melanoma
[58] = system: UACC-62 melanoma
[59] = system: UO-31 renal
[60] = system: DLD-1 colon
[61] = system: DMS 114 small cell lung
[62] = system: DMS 273 small cell lung
[63] = system: KM20L2 colon
[64] = system: LXFL 529 NSCLC
[65] = system: M19-MEL melanoma
[66] = system: SNB-78 CNS
[67] = system: XF 498 CNS

CN(N)/N=N/c1nc[nH]c1C(N)=O
TGI [1]: > 100 µM | TGI [2]: > 100 µM | TGI [3]: > 100 µM | TGI [4]: > 100 µM | TGI [5]: > 100 µM | TGI [6]: 55.2 µM | TGI [7]: > 27 µM | TGI [8]: > 69.7 µM | TGI [9]: > 100 µM | TGI [10]: > 100 µM | TGI [11]: > 42.2 µM | TGI [12]: > 100 µM | TGI [13]: > 100 µM | TGI [14]: 14.6 µM | TGI [15]: > 100 µM | TGI [16]: > 100 µM | TGI [17]: > 100 µM | TGI [18]: > 100 µM | TGI [19]: > 100 µM | TGI [20]: > 100 µM | TGI [21]: > 82.4 µM | TGI [22]: > 100 µM | TGI [23]: > 100 µM | TGI [24]: > 100 µM | TGI [25]: > 100 µM | TGI [26]: > 32.2 µM | TGI [27]: > 100 µM | TGI [28]: > 100 µM | TGI [29]: 8.05 µM | TGI [30]: > 100 µM | TGI [31]: > 100 µM | TGI [32]: > 71.5 µM | TGI [33]: > 100 µM | TGI [34]: > 100 µM | TGI [35]: > 100 µM | TGI [36]: > 100 µM | TGI [37]: > 100 µM | TGI [38]: > 100 µM | TGI [39]: > 100 µM | TGI [40]: > 100 µM | TGI [41]: > 100 µM | TGI [42]: > 100 µM | TGI [43]: > 70.9 µM | TGI [44]: > 100 µM | TGI [45]: > 100 µM | TGI [46]: > 100 µM | TGI [47]: > 100 µM | TGI [48]: > 100 µM | TGI [49]: > 57.2 µM | TGI [50]: > 100 µM | TGI [51]: > 100 µM | TGI [52]: 2.23 µM | TGI [53]: > 100 µM | TGI [54]: > 100 µM | TGI [55]: > 100 µM | TGI [56]: > 100 µM | TGI [57]: > 100 µM | TGI [58]: > 100 µM | TGI [59]: > 62.2 µM

O=c1cccccc1NCCCCCCCCCNc1cccccc1=O
TGI [1]: 88.9 µM | TGI [3]: > 100 µM | TGI [4]: 36.2 µM | TGI [6]: > 100 µM | TGI [7]: > 100 µM | TGI [8]: 26.2 µM | TGI [60]: > 100 µM | TGI [61]: 19.1 µM | TGI [62]: 32.6 µM | TGI [10]: 32.7 µM | TGI [11]: 78.7 µM | TGI [12]: 17.4 µM | TGI [13]: 39.9 µM | TGI [14]: 24.5 µM | TGI [15]: 35.7 µM | TGI [16]: 41.6 µM | TGI [18]: 65 µM | TGI [19]: > 100 µM | TGI [20]: 26.9 µM | TGI [21]: 33.3 µM | TGI [63]: 77.5 µM | TGI [22]: 19.1 µM | TGI [64]: 24.4 µM | TGI [23]: 25.7 µM | TGI [65]: 51 µM | TGI [24]: 39.9 µM | TGI [29]: 24.9 µM | TGI [30]: 43.4 µM | TGI [31]: 74.6 µM | TGI [32]: 27.7 µM | TGI [33]: 52.9 µM | TGI [35]: 37.5 µM | TGI [36]: > 100 µM | TGI [37]: 58 µM | TGI [38]: 34.7 µM | TGI [40]: 22.3 µM | TGI [41]: 79.3 µM | TGI [42]: 45.7 µM | TGI [43]: 44.3 µM | TGI [44]: 21.3 µM | TGI [45]: 46.8 µM | TGI [48]: 99.8 µM | TGI [49]: 62.2 µM | TGI [50]: 88.5 µM | TGI [51]: 62.9 µM | TGI [66]: 82.4 µM | TGI [52]: 45.7 µM | TGI [53]: 68.2 µM | TGI [56]: 30 µM | TGI [57]: 7.35 µM | TGI [58]: 28.7 µM | TGI [59]: 41.6 µM | TGI [67]: 20 µM

Source: PubChem BioAssay (NCI)
